The source made the active and inactive calls. No cut-off for these calls is given here.
Columns and labels:
DNA gyrase = DNA gyrase (Escherichia coli, UniProt P0AES4+P0AES6); test: Inhibition of Escherichia coli DNA gyrase assessed as supercoiling activity by fluorescence assay relative to control; assay type: protein-complex assay
[1] = biological target: T1, DNA gyrase (Escherichia coli) (UniProt P0AES6+P0AES4); test: Poison activity at Escherichia coli DNA gyrase assessed as stabilization of DNA cleavage complex by measuring linear plasmid DNA formation relative to control; assay type: protein-complex assay
[2] = biological target: T1, DNA gyrase (Escherichia coli); test: Inhibition of Escherichia coli DNA gyrase super-coiling activity at 50 uM; assay type: protein-complex assay
[3] = biological target: T1, DNA gyrase (Escherichia coli); test: Inhibition of Escherichia coli DNA gyrase super-coiling activity at 25uM; assay type: protein-complex assay
Bos taurus = organism: Bos taurus; test: Binding affinity to calf thymus DNA by fluorescence-based DNA binding assay
DNA = test: Displacement of thiazole orange from DNA (unknown origin) by fluorescence assay; assay type: nucleic-acid assay

| SMILES | IC50 (DNA gyrase) [µM] | Activity [1] | inhibition [2] | inhibition [3] | Activity (Bos taurus) | Activity (DNA) |
| --- | --- | --- | --- | --- | --- | --- |
| CCn1c(=O)n2nc(C(=O)O)cc2c2cc(F)c(N3CC[C@@H](CN)C3)cc21 | > 50 | – | – | – | – | – |
| Cc1c(N2CC[C@@H](CN)C2)c(F)cc2c(=O)n(CCNC(=N)N)c(=O)n(C3CC3)c12 | 11.5 | Active | Active | Active | – | – |
| COc1c(N2CC[C@@H](CN)C2)c(F)cc2c(=O)n(CCNC(=N)N)c(=O)n(C3CC3)c12 | > 50 | – | – | – | – | – |
| Cc1c(N2CC[C@@H](CN)C2)c(F)cc2c(=O)n(CCN)c(=O)n(C3CC3)c12 | 17.6 | Active | Active | Active | – | – |
| Cc1c(N2CC[C@@H](CN)C2)c(F)cc2c(=O)n(N)c(=O)n(C3CC3)c12 | 0.95 | Active | – | – | – | – |
| COc1c(N2CC[C@@H](CN)C2)c(F)cc2c(=O)c(C(=O)O)cn(C3CC3)c12 | 0.12 | Active | – | – | – | – |
| N=C(N)NCCn1c(=O)c2cc(F)c(N3CC[C@@H](CN)C3)cc2n(C2CC2)c1=O | > 50 | – | – | – | – | – |
| NCCn1c(=O)c2cc(F)c(N3CC[C@@H](CN)C3)cc2n(C2CC2)c1=O | > 50 | – | – | – | – | – |
| CCOC(=O)c1cnn2c(=O)n(CC)c3cc(N4CC[C@@H](CN)C4)c(F)cc3c12 | 3.5 | inactive | Active | Active | inactive | inactive |
| CCOC(=O)c1cc2c3cc(F)c(N4CC[C@@H](CN)C4)cc3n(CC)c(=O)n2n1 | > 50 | – | – | – | – | – |
| COc1c(N2CC[C@@H](CN)C2)c(F)cc2c(=O)n(CCN)c(=O)n(C3CC3)c12 | > 50 | – | – | – | – | – |

Source: ChEMBL document CHEMBL4622836, “Identification of an ethyl 5,6-dihydropyrazolo[1,5-c]quinazoline-1-carboxylate as a catalytic inhibitor of DNA gyrase” (Bioorg Med Chem, 2020)
